IC50 and solubility data for 31 molecules are collected here from patent publication US20240287124A1, “PRODRUGS OF 4'-SUBSTITUTED NUCLEOSIDE REVERSE TRANSCRIPTASE INHIBITORS” (Merck Sharp & Dohme LLC, priority 2023, published 2024).

SMILES strings stand for the structures. In brackets after ≈: the same amount, converted by molar mass. Read-outs that look alike come from different tables or passages of the source. Some results are limits rather than exact numbers.

Series [1] deals with HIV-1 wild-type (R8) virus. Briefly: Viral KINetics in Green cells (VIKING) assay, HIV-1 replication in MT4-GFP reporter cells. The series is classed as cell-based. An outline of the steps:
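MT4-GFP cells infected overnight with HIV-1 R8 at MOI ~0.01, then added to compound plates in RPMI with 10% normal human serum; 10-point 3-fold dilutions (typically 4 μM-0.2 nM). Green cells counted at ~48 h and 72 h; reproductive ratio (72 h/48 h) gave % inhibition, IC50 by 4-parameter fit.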

The nature of series [2]: Aqueous solubility in PBS, pH 7.4. The series is classed as physicochemical. The settings on record: for solubility at 24 h: pH 7.4, aqueous buffer, thermodynamic from solid, pH 7.4 phosphate buffered saline, amorphous or crystalline material, read-out: Aqu. Solubility. An outline of the steps: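 Excess solid suspended at 0.5 mg/mL in PBS pH 7.4 and stirred 24 hours. Filtrate (0.45 μm) diluted 1:1 with ACN:H2O and quantified by UPLC against a standard curve; residual solid phase checked by XRPD and PLM.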

[3] abbreviates: Human immunodeficiency virus 1, 10% normal human serum, MT4-GFP cells, HIV-1 wild-type (R8), read-out: Viking (10% NHS), IC50.

Regarding `C#C[C@]1(CO)O[C@@H](n2ccc3c(N)nc(Cl)nc32)C[C@@H]1OC(=O)C(CCC)CCC` [Example 52, (2R,3S,5R)-5-(4-amino-2-chloro-7H-pyrrolo[2,3-d]pyrimidin-7-yl)-2-ethynyl-2-(hydroxymethyl)tetrahydrofuran-3-yl 2-propylpentanoate], in series [1] (setting [3]), the IC50 (in general, the midpoint of a concentration-inhibition curve) came to 337 nM. In addition, the solubility (commonly the concentration that dissolves in the medium under given conditions) at 24 h in series [2] (phosphate buffered saline) amounted to 2.4 µg/mL (≈ 5.52 µM).
On the same counts, the results for `C#C[C@]1(COC(=O)CCCCCCCCC)O[C@@H](n2ccc3c(N)nc(Cl)nc32)C[C@@H]1O` [Example 20, ((2R,3S,5R)-5-(4-amino-2-chloro-7H-pyrrolo[2,3-d]pyrimidin-7-yl)-2-ethynyl-3-hydroxytetrahydrofuran-2-yl)methyl decanoate] are 2.8 nM and less than 1 µg/mL.
On the same counts, the results for `C#C[C@]1(COC(=O)OCc2cccnc2)O[C@@H](n2ccc3c(N)nc(Cl)nc32)C[C@@H]1CC(=O)CCCc1ccccc1` [Example 173] are 6.2 nM and less than 1 µg/mL.
In the case of `C#C[C@]1(COC(=O)OCCCCC[C@@H]2SC[C@@H]3NC(=O)N[C@@H]32)O[C@@H](n2ccc3c(N)nc(Cl)nc32)C[C@@H]1OC(=O)OCC` [Example 171], in series [1] (setting [3]), the IC50 was determined as 18 nM. For the same molecule, the solubility at 24 h in series [2] (phosphate buffered saline) was 1.9 µg/mL (≈ 2.98 µM).
As to `C#C[C@]1(COC(=O)Cc2ccc(Br)cc2)O[C@@H](n2ccc3c(N)nc(Cl)nc32)C[C@@H]1OC(=O)Cc1ccc(Br)cc1` [Example 227], the half-inhibitory concentration (IC50) in series [1] (setting [3]) was 12 nM. The solubility at 24 h in series [2] (phosphate buffered saline) is less than 1 µg/mL.
Turning to `C#C[C@]1(CO)O[C@@H](n2ccc3c(N)nc(Cl)nc32)C[C@@H]1OC(=O)OCCCCCC` [Example 61, (2R,3S,5R)-5-(4-amino-2-chloro-7H-pyrrolo[2,3-d]pyrimidin-7-yl)-2-ethynyl-2-(hydroxymethyl)tetrahydrofuran-3-yl hexyl carbonate], the concentration for half-maximal inhibition (IC50) in series [1] (setting [3]) amounted to 4.5 nM. Further, in series [2] (phosphate buffered saline), the solubility at 24 h was less than 1 µg/mL.
For the molecule `C#C[C@]1(CO)O[C@@H](n2ccc3c(N)nc(Cl)nc32)C[C@@H]1OC(=O)CCC12CC3CC(CC(C3)C1)C2` [Example 30], the half-maximal inhibitory concentration (IC50) in series [1] (setting [3]) stood at 3.6 nM. For the same molecule, in series [2] (phosphate buffered saline), the solubility at 24 h is less than 1 µg/mL.
The matching figures for `C#C[C@]1(CO)O[C@@H](n2ccc3c(N)nc(Cl)nc32)C[C@@H]1OC(=O)CCCCCCCCC` [Example 4, (2R,3S,5R)-5-(4-amino-2-chloro-7H-pyrrolo[2,3-d]pyrimidin-7-yl)-2-ethynyl-2-(hydroxymethyl)tetrahydrofuran-3-yl decanoate]: 2.9 nM and less than 1 µg/mL.
For `C#C[C@]1(COCOC(=O)OCCCCCCCCCCCC)O[C@@H](n2ccc3c(N)nc(Cl)nc32)C[C@@H]1O` [Example 134], the IC50 in series [1] (setting [3]) was 3.7 nM. Besides, in series [2] (phosphate buffered saline), the solubility at 24 h is less than 1 µg/mL.
For the molecule `C#C[C@]1(COC(=O)OCCCCCCCC)O[C@@H](n2ccc3c(N)nc(Cl)nc32)C[C@@H]1OC(=O)CC` [Example 113], the IC50 in series [1] (setting [3]) stood at 26 nM. The solubility at 24 h in series [2] (phosphate buffered saline) is less than 1 µg/mL.
For the molecule `C#C[C@]1(COP(=O)(N[C@@H](C)C(=O)OC(C)C)Oc2ccc3ccccc3c2)O[C@@H](n2ccc3c(N)nc(Cl)nc32)C[C@@H]1O` (some centres unmarked) [Example 75], the IC50 in series [1] (setting [3]) was determined as 47 nM. Also, in series [2], the solubility at 24 h amounted to 30 µg/mL (≈ 47.8 µM).
In the case of `C#C[C@]1(CO)O[C@@H](n2ccc3c(N)nc(Cl)nc32)C[C@@H]1OC(=O)OCCC12CC3CC(CC(C3)C1)C2` [Example 36, 2-(adamantan-1-yl)ethyl ((2R,3S,5R)-5-(4-amino-2-chloro-7H-pyrrolo[2,3-d]pyrimidin-7-yl)-2-ethynyl-2-(hydroxymethyl)tetrahydrofuran-3-yl) carbonate], the IC50 in series [1] (setting [3]) was 5.5 nM. For the same molecule, the solubility at 24 h in series [2] (phosphate buffered saline) was less than 1 µg/mL.
As to `C#C[C@]1(COC(=O)CCCCCCCCCCCCCCC)O[C@@H](n2ccc3c(N)nc(Cl)nc32)C[C@@H]1O` [Example 16, ((2R,3S,5R)-5-(4-amino-2-chloro-7H-pyrrolo[2,3-d]pyrimidin-7-yl)-2-ethynyl-3-hydroxytetrahydrofuran-2-yl)methyl palmitate], in series [1] (setting [3]), the IC50 stood at 5.6 nM. The solubility at 24 h in series [2] (phosphate buffered saline) was less than 1 µg/mL.
Regarding `C#C[C@]1(COC(=O)OC(CC)CC)O[C@@H](n2ccc3c(N)nc(Cl)nc32)C[C@@H]1OC(=O)OC(CC)CC` [Example 142], the IC50 in series [1] (setting [3]) was 1760 nM. Moreover, the solubility at 24 h in series [2] (phosphate buffered saline) was less than 1 µg/mL.
On the same counts, the results for `C#C[C@]1(CO)O[C@@H](n2ccc3c(N)nc(Cl)nc32)C[C@@H]1OC(=O)CCC` [Example 179] are 11 nM and 27 µg/mL (≈ 71.3 µM).
Take `C#C[C@]1(COC(=O)Cc2ccc(F)cc2)O[C@@H](n2ccc3c(N)nc(Cl)nc32)C[C@@H]1O` [Example 37, ((2R,3S,5R)-5-(4-amino-2-chloro-7H-pyrrolo[2,3-d]pyrimidin-7-yl)-2-ethynyl-3-hydroxytetrahydrofuran-2-yl)methyl 2-(4-fluorophenyl)acetate]: the IC50 in series [1] (setting [3]) was 2.3 nM. For the same molecule, in series [2] (phosphate buffered saline), the solubility at 24 h worked out at 118 µg/mL (≈ 265 µM).
On the same counts, the results for `C#C[C@]1(COC(=O)c2ccccn2)O[C@@H](n2ccc3c(N)nc(Cl)nc32)C[C@@H]1OC(=O)c1ccccn1` [Example 49, (2R,3S,5R)-5-(4-amino-2-chloro-7H-pyrrolo[2,3-d]pyrimidin-7-yl)-2-ethynyl-2-((picolinoyloxy)methyl)tetrahydrofuran-3-yl picolinate] are 7.5 nM and 49 µg/mL (≈ 94.4 µM).
On the same counts, the results for `C#C[C@]1(COC(=O)c2ccccn2)O[C@@H](n2ccc3c(N)nc(Cl)nc32)C[C@@H]1O` [Example 50] are 1.6 nM and 239 µg/mL (≈ 578 µM).
The matching figures for `C#C[C@]1(COC(=O)OCc2ccccc2)O[C@@H](n2ccc3c(N)nc(Cl)nc32)C[C@@H]1OC(=O)OCc1ccccc1` [Example 214]: 4.7 nM and less than 1 µg/mL.
Consider `C#C[C@]1(CO)O[C@@H](n2ccc3c(N)nc(Cl)nc32)C[C@@H]1OC(=O)CCCCCCCCCCCCC` [Example 26, (2R,3S,5R)-5-(4-amino-2-chloro-7H-pyrrolo[2,3-d]pyrimidin-7-yl)-2-ethynyl-2-(hydroxymethyl)tetrahydrofuran-3-yl tetradecanoate], for which, in series [1] (setting [3]), the IC50 stood at 7 nM. Further, the solubility at 24 h in series [2] (phosphate buffered saline) is less than 1 µg/mL.
The matching figures for `C#C[C@]1(COC(=O)OCc2oc(=O)oc2C)O[C@@H](n2ccc3c(N)nc(Cl)nc32)C[C@@H]1O` [Example 143]: 2.9 nM and 229 µg/mL (≈ 493 µM).
The matching figures for `C#C[C@]1(COC(=O)OCCC23CC4CC(CC(C4)C2)C3)O[C@@H](n2ccc3c(N)nc(Cl)nc32)C[C@@H]1O` [Example 35, 2-(adamantan-1-yl)ethyl (((2R,3S,5R)-5-(4-amino-2-chloro-7H-pyrrolo[2,3-d]pyrimidin-7-yl)-2-ethynyl-3-hydroxytetrahydrofuran-2-yl)methyl) carbonate]: 6.2 nM and less than 1 µg/mL.
Take `C#C[C@]1(COC(=O)CCCC[C@@H]2SC[C@@H]3NC(=O)N[C@@H]32)O[C@@H](n2ccc3c(N)nc(Cl)nc32)C[C@@H]1OC(=O)CCCc1ccccc1` [Example 190]: the half-maximal inhibitory concentration (IC50) in series [1] (setting [3]) came to 6.5 nM. Moreover, the solubility at 24 h in series [2] (phosphate buffered saline) is less than 1 µg/mL.
The matching figures for `C#C[C@]1(COC(=O)CCCC[C@@H]2SC[C@@H]3NC(=O)N[C@@H]32)O[C@@H](n2ccc3c(N)nc(Cl)nc32)C[C@@H]1O` [Example 145]: 3.2 nM and 38 µg/mL (≈ 71 µM).
On the same counts, the results for `C#C[C@]1(CO)O[C@@H](n2ccc3c(N)nc(Cl)nc32)C[C@@H]1OC(=O)OCCCC` [Example 82] are 4 nM and 11 µg/mL (≈ 26.9 µM).
On the same counts, the results for `C#C[C@]1(COC(=O)CCCC)O[C@@H](n2ccc3c(N)nc(Cl)nc32)C[C@@H]1OC(=O)OCC` [Example 146] are 19 nM and 7 µg/mL (≈ 15.1 µM).
For `C#C[C@]1(COC(=O)CCCCCCCCCCC)O[C@@H](n2ccc3c(N)nc(Cl)nc32)C[C@@H]1O` [Example 90], the concentration for half-maximal inhibition (IC50) in series [1] (setting [3]) was 3.9 nM. The solubility at 24 h in series [2] (phosphate buffered saline) is less than 1 µg/mL.
The matching figures for `C#C[C@]1(CO)O[C@@H](n2ccc3c(N)nc(Cl)nc32)C[C@@H]1OC(=O)OCCCCCCCCC` [Example 38, (2R,3S,5R)-5-(4-amino-2-chloro-7H-pyrrolo[2,3-d]pyrimidin-7-yl)-2-ethynyl-2-(hydroxymethyl)tetrahydrofuran-3-yl nonyl carbonate]: 8 nM and less than 1 µg/mL.
The matching figures for `C#C[C@]1(COC(=O)OCCCCCCCCCCCCCC)O[C@@H](n2ccc3c(N)nc(Cl)nc32)C[C@@H]1O` [Example 163]: 3.5 nM and less than 1 µg/mL.
On the same counts, the results for `C#C[C@]1(COC(=O)Oc2ccccc2)O[C@@H](n2ccc3c(N)nc(Cl)nc32)C[C@@H]1O` [Example 17, ((2R,3S,5R)-5-(4-amino-2-chloro-7H-pyrrolo[2,3-d]pyrimidin-7-yl)-2-ethynyl-3-hydroxytetrahydrofuran-2-yl)methyl phenyl carbonate] are 1.4 nM and 164 µg/mL (≈ 382 µM).
For `C#C[C@]1(CO)O[C@@H](n2ccc3c(N)nc(Cl)nc32)C[C@@H]1O` [Compound A, (2R,3S,5R)-5-(4-amino-2-chloro-7H-pyrrolo[2,3-d]pyrimidin-7-yl)-2-ethynyl-2-(hydroxymethyl)tetrahydrofuran-3-ol, reference compound], the concentration for half-maximal inhibition (IC50) in series [1] (Human immunodeficiency virus 1, parent compound, read-out: IC50 in the Viking assay) was 3.3 nM. In addition, the solubility in series [2] (water, in water) is 500 µg/mL (≈ 1620 µM).
